{
  "source": "ChEMBL document CHEMBL1159171",
  "about": "“Symmetry-based HIV protease inhibitors containing a hydroxy bis-urea isostere” (Bioorg Med Chem Lett, 1994)",
  "target": "Human immunodeficiency virus type 1 protease (Human immunodeficiency virus 1) (UniProt Q72874)",
  "experiment": "In vitro inhibitory activity against HIV-1 protease at a concentration of 10 uM",
  "data": [
    {"smiles": "CC(C)(C)NC(=O)N(Cc1cccc(O)c1)CC(O)CN(Cc1cccc(O)c1)C(=O)NC(C)(C)C", "values": [
      {"measurement": "inhibition", "result": 67, "unit": "%"}
    ]},
    {"smiles": "CC(C)(C)NC(=O)NCC(O)CNC(=O)NC(C)(C)C", "values": [
      {"measurement": "inhibition", "result": 8, "unit": "%"}
    ]},
    {"smiles": "CON[C@H](C(=O)NC(=O)N(Cc1ccccc1)CC(O)CN(Cc1ccccc1)C(=O)NC(=O)[C@@H](NOC)C(C)C)C(C)C", "values": [
      {"measurement": "inhibition", "result": 36, "unit": "%"}
    ]},
    {"smiles": "CC(C)CN(CC(O)CN(CC(C)C)C(=O)NC(C)(C)C)C(=O)NC(C)(C)C", "values": [
      {"measurement": "inhibition", "result": 25, "unit": "%"}
    ]},
    {"smiles": "CC(C)(C)OC(=O)NC(=O)N(Cc1ccccc1)CC(O)CN(Cc1ccccc1)C(=O)NC(=O)OC(C)(C)C", "values": [
      {"measurement": "inhibition", "result": 28, "unit": "%"}
    ]},
    {"smiles": "CON[C@@H](C(=O)NC(=O)N(Cc1ccccc1)CC(O)CN(Cc1ccccc1)C(=O)NC(=O)[C@H](NOC)C(C)C)C(C)C", "note": "(single isomer, unassigned)", "values": [
      {"measurement": "inhibition", "result": 16, "unit": "%"}
    ]},
    {"smiles": "CC(C)(C)NC(=O)N(Cc1ccccc1O)CC(O)CN(Cc1ccccc1O)C(=O)NC(C)(C)C", "values": [
      {"measurement": "inhibition", "result": 11, "unit": "%"}
    ]},
    {"smiles": "CC(C)(C)NC(=O)N(Cc1ccccc1)CC(O)CN(Cc1ccccc1)C(=O)NC(C)(C)C", "values": [
      {"measurement": "inhibition", "result": 50, "unit": "%"}
    ]},
    {"smiles": "O=C(Nc1ccccc1)N(Cc1ccccc1)CC(O)CN(Cc1ccccc1)C(=O)Nc1ccccc1", "values": [
      {"measurement": "inhibition", "result": 16, "unit": "%"}
    ]},
    {"smiles": "O=C(NCc1ccccc1)N(Cc1ccccc1)CC(O)CN(Cc1ccccc1)C(=O)NCc1ccccc1", "values": [
      {"measurement": "inhibition", "result": 19, "unit": "%"}
    ]},
    {"smiles": "CC(C)(C)N(Cc1ccccc1)C(=O)NCC(O)CNC(=O)N(Cc1ccccc1)C(C)(C)C", "values": [
      {"measurement": "inhibition", "result": 17.5, "unit": "%"}
    ]},
    {"smiles": "CC(C)(C)NC(=O)N(Cc1cccc(O)c1O)CC(O)CN(Cc1cccc(O)c1O)C(=O)NC(C)(C)C", "values": [
      {"measurement": "inhibition", "result": 67, "unit": "%"}
    ]},
    {"smiles": "CC(C)(C)NC(=O)N(Cc1ccccc1)C[C@H](O)[C@@H](O)CN(Cc1ccccc1)C(=O)NC(C)(C)C", "values": [
      {"measurement": "inhibition", "result": 78, "unit": "%"}
    ]},
    {"smiles": "CCCNC(=O)N(Cc1ccccc1)CC(O)CN(Cc1ccccc1)C(=O)NCCC", "values": [
      {"measurement": "inhibition", "result": 38, "unit": "%"}
    ]},
    {"smiles": "CC(C)[C@H](NC(=O)OCc1ccccc1)C(=O)N[C@@H](Cc1ccccc1)C(O)[C@H](Cc1ccccc1)NC(=O)[C@@H](NC(=O)OCc1ccccc1)C(C)C", "values": [
      {"measurement": "inhibition", "result": 3, "unit": "%"}
    ]}
  ]
}
